Reference: ChEMBL document CHEMBL5120954, “Novel MRGX2 Antagonists for Treating Diseases” (ACS Med Chem Lett, 2022)

molecular target: T1, Mas-related G-protein coupled receptor member X2 (Homo sapiens, UniProt Q96LB1); assay: Antagonist activity at human MRGPRX2 expressed in HEK293 cells co-expressing mouse Galpha15 assessed as inhibition of Cortistatin-14 induced Ca2+ mobilization preincubated for 30 mins followed by Cortistatin-14 addition by FLIPRtetra-calcium mobilization assay; assay type: functional, cell-based
T1 sequence (Q96LB1 whole entry): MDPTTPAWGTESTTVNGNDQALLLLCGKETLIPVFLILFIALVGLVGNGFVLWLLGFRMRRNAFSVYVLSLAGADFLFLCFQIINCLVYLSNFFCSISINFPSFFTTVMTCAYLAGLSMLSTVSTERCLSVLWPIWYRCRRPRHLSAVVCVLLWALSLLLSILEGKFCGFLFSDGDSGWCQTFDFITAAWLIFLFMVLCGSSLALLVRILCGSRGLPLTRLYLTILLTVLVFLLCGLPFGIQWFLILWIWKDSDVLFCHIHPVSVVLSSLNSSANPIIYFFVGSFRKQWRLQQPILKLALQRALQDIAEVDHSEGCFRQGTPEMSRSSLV

Row | IC50 [nM] | SMILES
1 | ≤ 10 | C[C@@H](C(=O)Nc1ccc(Oc2ccc(F)cc2F)cn1)N1CCC(F)(F)[C@@H](c2c[nH]c(=O)c(CS(C)(=O)=O)c2)C1
2 | ≤ 10 | CC(C(=O)Nc1ccc(Oc2ccc(F)cc2)cn1)N1CCC(F)(F)C(c2c[nH]c(=O)c(CNCCO)c2)C1 (stereo not given)
3 | ≤ 10 | CC(C(=O)Nc1ccc(Oc2ccc(F)cc2)cn1)C1CCC(F)(F)C(c2ccc(=O)[nH]c2)C1 (stereo not given)
4 | ≤ 10 | CC(C(=O)Nc1ccc(Oc2cnc(F)cc2Cl)cn1)N1CCC(F)(F)[C@@H](c2ccc(=O)[nH]c2)C1 (stereo not given in full)
5 | ≤ 10 | CC(C(=O)Nc1ccc(Oc2ccccc2)cn1)N1CCC(F)(F)[C@@H](c2c[nH]c(=O)c(CN)c2)C1 (stereo not given in full)
